Test results: patent publication US12150945B2, “Liver disease” (Lipocine Inc., priority 2018, dated 2024)

Key:
Format in all cases: in vivo, human
[1] = Serum DHT, DHT/T ratio, E2 and calculated free T, hormone assessment in trial of Example 1; settings: for ratio of DHT/T based on Cavg0-24 h / ratio of DHT/T based on Cmax: normal range 0.05 to 0.33
Experimental: (§1) Subjects were randomized in a 2:1 ratio to oral testosterone undecanoate or T gel. oral testosterone undecanoate subjects started at a dose of 225 mg TU (“testosterone undecanoate”) taken twice daily (total daily dose: 450 mg TU) every 12 hours. For optimal lymphatic absorption oral testosterone undecanoate must be administered with a meal. Therefore, subjects were instructed to administer oral testosterone undecanoate after a standard meal (defined as a meal consisting of 800 to 1400 calories with approximately 20% to 35% fat content). The oral testosterone undecanoate dose was titrated at Weeks 4 and 8, if necessary, based on results of intensive 24-hour PK blood sampling obtained at Weeks 3 and 7, respectively. Oral testosterone undecanoate subjects stayed at the clinic overnight during each intensive PK blood sampling period. […] Oral testosterone undecanoate dose levels permitted during the study were 150 mg BID, 225 mg BID, and 300 mg BID. Data collected during an intensive 24-hour PK sampling overnight stay at Week 13 were used for efficacy analysis; dose was not adjusted at this visit. Additional outpatient visits were conducted at Weeks 26, 39, and 52 during which single blood draws were performed 3 to 6 hours post morning dose. Dose was not adjusted during these visits.
Serum levels of T, TU, dihydrotestosterone (DHT), dihydrotestosterone undecanoate (DHTU), and estradiol (E2) were evaluated in oral testosterone undecanoate treated subjects. […] Sex hormone binding globulin (SHBG) was evaluated in data from all subjects. Serum T concentrations at screening were measured using chemiluminescence immunoassay kits. Hormone assays for pharmacokinetic assessment were analyzed at PPD Bioanalytical Laboratory in Richmond, Virginia Serum samples were analyzed for T, DHT, TU, DHTU, and E2 using a validated liquid chromatography-tandem mass spectrometry (LC-MS/MS) assay.

hematocrit, hemoglobin = experiment: Androgenic parameters (hematocrit, hemoglobin), change from baseline to end of study, safety set, trial of Example 1
Experimental: (§2) Oral testosterone therapy was evaluated in a multicenter, phase 3, randomized, open-label, active controlled, parallel-group study that included a 13-week efficacy phase and a 52-week safety phase. An active arm in which subjects received T gel was included for safety evaluation only.
as §1
(§3) T gel (ANDROGEL®) (testosterone gel for topical use) 1.62%, AbbVie, Chicago, Illinois, US) was supplied in non-aerosol, metered dose pumps that deliver 20.25 mg T per complete pump actuation. T gel was dosed according to product labeling. Subjects receiving T gel completed outpatient visits at Weeks 2 and 4 with single blood draws to determine titration and at Weeks 3 and 5 for dose changes, if necessary. They also completed an outpatient visit at Week 7 for safety assessments and at Weeks 13, 26, 39 and 52 during which single blood samples were obtained 3 to 6 hours after the morning dose. Dose was not adjusted during these visits. Overnight clinic stays were not required for T gel subjects.
(§4) Safety endpoints included adverse events (AEs), physical examination findings, vital signs, electrocardiograms (ECGs), and clinical laboratory tests. AEs were classified using the Medical Dictionary for Regulatory Activities (Version 16.1). Safety endpoints were summarized using descriptive statistics. Lab parameters were evaluated using two sample t-tests comparing change from baseline to end of study (EOS) across oral testosterone undecanoate and T gel subjects with p-values <0.05 considered statistically significant.

liver function enzymes = experiment: Liver function enzymes (ALT, AST, ALP, GGT, bilirubin), change from baseline to end of study, trial of Example 1
Experimental: as §2, §1, §3, §4

lipids = experiment: Lipid parameters (HDL, LDL, total cholesterol, triglycerides, non-HDL cholesterol), change from baseline to end of study, trial of Example 1
Experimental: as §2, §1, §3, §4

C-Reactive Protein = experiment: C-Reactive Protein, change from baseline to end of study, trial of Example 1; settings: Safety Set; subjects with CRP values > 95.23 excluded
[2] = Safety Set, baseline to end of study
[3] = 4th quartile patients based on lab parameter level, 1 year study
[4] = 4th quartile patients based on lab parameter level, 1 Year Oral TU Study

CCCCCCCCCCC(=O)O[C@H]1CC[C@H]2[C@@H]3CCC4=CC(=O)CC[C@]4(C)[C@H]3CC[C@]12C [oral testosterone undecanoate, testosterone undecanoate]
ratio of DHT/T based on Cavg0-24 h ([1]; Week 3): 0.24
ratio of DHT/T based on Cmax ([1]; Week 3): 0.16
ratio of DHT/T based on Cavg0-24 h ([1]; Week 7): 0.26
ratio of DHT/T based on Cmax ([1]; Week 7): 0.18
ratio of DHT/T based on Cavg0-24 h ([1]; Week 13): 0.26
ratio of DHT/T based on Cmax ([1]; Week 13): 0.18
Calculated free T levels ([1]; normal values 9 to 30 ng/dL): consistently within normal values
Elevated hematocrit (>54%), number of subjects (hematocrit, hemoglobin; 52-week safety phase): 8 subjects
subjects withdrawn for elevated hematocrit (>54%) (hematocrit, hemoglobin; 52-week safety phase): 1.4%
Hematocrit, mean (SD) change from baseline to end of study (hematocrit, hemoglobin; Safety Set, N = 314, baseline to end of study): 2.54 (3.41) %
APTT, mean (SD) change from baseline to end of study (hematocrit, hemoglobin; [2]): 0.61 (4.07)
Hemoglobin, mean (SD) change from baseline to end of study (hematocrit, hemoglobin; [2]): 7.2 (10.65) g/L
PSA, mean (SD) change from baseline to end of study (hematocrit, hemoglobin; [2]): 0.27 (0.97) mcg/L
Platelets, mean (SD) change from baseline to end of study (hematocrit, hemoglobin; [2]): 8.5 (31.34) 10^9/L
Prothrombin time, mean (SD) change from baseline to end of study (hematocrit, hemoglobin; [2]): 0.31 (1.14) sec
hemoglobin, pretreatment to EOS (hematocrit, hemoglobin; in vivo): Small and similar increases
ALP, mean change from baseline (liver function enzymes; [3]): −10.2 U/L
ALP, mean change from baseline, % (liver function enzymes; [3]): −10.4%
ALT, mean change from baseline (liver function enzymes; [3]): −10.0 U/L
ALT, mean change from baseline, % (liver function enzymes; [3]): −16.7%
AST, mean change from baseline (liver function enzymes; [3]): -6.3 U/L
AST, mean change from baseline, % (liver function enzymes; [3]): −16.6%
Albumin, mean change from baseline (liver function enzymes; [3]): -2.5 g/L
Albumin, mean change from baseline, % (liver function enzymes; [3]): −3.1%
Bilirubin, mean change from baseline (liver function enzymes; [3]): -0.18 mg/dL
Bilirubin, mean change from baseline, % (liver function enzymes; [3]): −20.5%
Creatinine, mean change from baseline (liver function enzymes; [3]): 0.01 mg/dL
Creatinine, mean change from baseline, % (liver function enzymes; [3]): 0.8%
GGT, mean change from baseline (liver function enzymes; [3]): −7.0 U/L
GGT, mean change from baseline, % (liver function enzymes; [3]): −7.4%
ALT, mean (SD) change from baseline to end of study (liver function enzymes; [2]): −3.07 (11.22) U/L
AST, mean (SD) change from baseline to end of study (liver function enzymes; [2]): −1.5 (7.52) U/L
Alkaline phosphatase, mean (SD) change from baseline to end of study (liver function enzymes; [2]): −4.1 (13.33) U/L
Bilirubin, mean (SD) change from baseline to end of study (liver function enzymes; [2]): −0.43 (3.66) mcmol/L
GGT, mean (SD) change from baseline to end of study (liver function enzymes; [2]): −2.0 (12.50) U/L
LDL-C, mean change from baseline (lipids; [4]): -10.2 mg/dL
LDL-C, mean change from baseline, % (lipids; [4]): −6.1%
Non-HDL-C, mean change from baseline (lipids; [4]): -18.2 mg/dL
Non-HDL-C, mean change from baseline, % (lipids; [4]): −8.7%
Total Cholesterol, mean change from baseline (lipids; [4]): -20.2 mg/dL
Total Cholesterol, mean change from baseline, % (lipids; [4]): −7.9%
Triglycerides, mean change from baseline (lipids; [4]): -85.1 mg/dL
Triglycerides, mean change from baseline, % (lipids; [4]): −19.0%
Cholesterol, mean (SD) change from baseline to end of study (lipids; [2]): -0.24 (0.82) mmol/L
HDL cholesterol, mean (SD) change from baseline to end of study (lipids; [2]): −0.14 (0.22) mmol/L
LDL cholesterol, mean (SD) change from baseline to end of study (lipids; [2]): −0.05 (0.66) mmol/L
Triglyceride, mean (SD) change from baseline to end of study (lipids; [2]): −0.18 (1.14) mmol/L
Serum HDL cholesterol decrease at EOS (lipids; compared with T gel): significantly larger decrease
HDL cholesterol: subjects with a shift from normal at baseline to low at EOS (lipids; in vivo): 19.0%
other lipid parameters, difference between oral testosterone undecanoate and T gel (lipids; lipid parameters other than HDL cholesterol): No statistically significant differences
C-Reactive Protein, mean (SD) change from baseline to end of study (C-Reactive Protein): −4.68 (30.94) nmol/L
